Assays:
[1] = Screen (mesh) particle size analysis; format: physicochemical; settings: uncoated feed powder
[2] = uncoated feed powder
[3] = uncoated feed powder; remark: listed apart in the source

mean particle size [1]: about 200 mesh
moisture content [2]: 0.06 % by weight
loose bulk density [3]: 0.38 g/cc
Compound: Cc1c(C)c2c(c(C)c1OC(=O)CCC(=O)O)CC[C@@](C)(CCC[C@H](C)CCC[C@H](C)CCCC(C)C)O2 [succinate (vitamin E), tocopherol succinate]

From patent publication US20050214367A1, “Processes for making coated phytochemicals and tocopherols and products formed therefrom” (priority 2004, published 2005)
